Results reported in patent US9067977B2, “Peptides derivatized with A-B-C-D- and their therapeutical use” (Novo Nordisk A/S, priority 2007, dated 2015).
pEC50: −log10 of the molar value. Starred links: 1 amine or outer side, 2 acyl side, 3 side chain; linkers in the order of their positions; H or OH if unused. Residues, ends and D or L forms follow the SMILES beside them. Groups on a side chain read outwards from the residue. *: point of attachment. X1 = O=C(CCCCCCCCCCCCCCCc1nnn[nH]1)NS(=O)(=O)CCCC(=O)*; γGlu = O=C(O)[C@H](CCC(=O)[*:2])N[*:1]; Desaminohistidyl = O=C(CCc1c[nH]cn1)*; 12Ado = NCCCCCCCCCCCC(=O)O; AEEA = NCCOCCOCC(=O)O

Biological target: human serum albumin (HSA) (Homo sapiens, UniProt P02768)
Sequence (P02768 25-609): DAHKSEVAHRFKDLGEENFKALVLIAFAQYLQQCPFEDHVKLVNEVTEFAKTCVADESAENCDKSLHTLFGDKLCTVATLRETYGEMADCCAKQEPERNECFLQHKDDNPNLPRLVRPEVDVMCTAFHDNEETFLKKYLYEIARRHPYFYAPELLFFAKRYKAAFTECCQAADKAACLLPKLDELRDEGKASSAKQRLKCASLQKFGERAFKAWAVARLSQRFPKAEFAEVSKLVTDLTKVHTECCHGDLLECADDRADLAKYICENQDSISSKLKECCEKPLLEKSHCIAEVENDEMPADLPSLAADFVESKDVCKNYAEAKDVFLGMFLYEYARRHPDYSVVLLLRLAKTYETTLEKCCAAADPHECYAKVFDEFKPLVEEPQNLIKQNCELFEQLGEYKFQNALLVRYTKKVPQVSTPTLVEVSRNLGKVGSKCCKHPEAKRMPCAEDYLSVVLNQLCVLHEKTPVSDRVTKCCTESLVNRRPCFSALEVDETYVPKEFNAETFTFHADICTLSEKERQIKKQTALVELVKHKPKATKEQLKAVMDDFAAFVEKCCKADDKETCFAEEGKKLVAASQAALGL
Assay: Albumin binding affinity, competition scintillation proximity assay
Settings: for EC50 at 20 h: human, biotinylated human serum albumin on streptavidin-SPA beads, pH 7.4
Method: Streptavidin-SPA beads (GE Healthcare RPNQ0009) were incubated with biotinylated HSA for 5 hours. The beads were washed with buffer to remove unbound HSA. […] After 20 hours of gentle rocking at room temperature the plates were centrifuged and counted on a TopCounter.

Row | SMILES | pEC50 | EC50 at 20 h [µM]
1 | CC[C@H](C)[C@H](NC(=O)[C@H](Cc1ccccc1)NC(=O)[C@H](CCC(=O)O)NC(=O)[C@H](CCCNC(=N)N)NC(=O)[C@H](C)NC(=O)[C@H](C)NC(=O)[C@H](CCC(N)=O)NC(=O)CNC(=O)[C@H](CCC(=O)O)NC(=O)[C@H](CC(C)C)NC(=O)[C@H](Cc1ccc(O)cc1)NC(=O)[C@H](CO)NC(=O)[C@H](CO)NC(=O)[C@@H](NC(=O)[C@H](CC(=O)O)NC(=O)[C@H](CO)NC(=O)[C@@H](NC(=O)[C@H](Cc1ccccc1)NC(=O)[C@@H](NC(=O)CNC(=O)[C@H](CCC(=O)O)NC(=O)[C@H](C)NC(=O)CCc1cnc[nH]1)[C@@H](C)O)[C@@H](C)O)C(C)C)C(=O)N[C@@H](C)C(=O)N[C@@H](Cc1c[nH]c2ccccc12)C(=O)N[C@@H](CC(C)C)C(=O)N[C@H](C(=O)N[C@@H](CCCNC(=N)N)C(=O)NCC(=O)N[C@@H](CCCNC(=N)N)C(=O)NCC(=O)N[C@@H](CCCCNC(=O)COCCOCCNC(=O)COCCOCCNC(=O)CC[C@H](NC(=O)[C@H]1CC[C@H](CNC(=O)CCCCCCCCCCCCCCCCCCC(=O)O)CC1)C(=O)O)C(N)=O)C(C)C [Example 28] | < 5.70 | –
2 | CC[C@H](C)[C@H](NC(=O)[C@H](Cc1ccccc1)NC(=O)[C@H](CCC(=O)O)NC(=O)[C@H](CCCNC(=N)N)NC(=O)[C@H](C)NC(=O)[C@H](C)NC(=O)[C@H](CCC(N)=O)NC(=O)[C@H](CCC(=O)O)NC(=O)[C@H](CCC(=O)O)NC(=O)[C@H](CC(C)C)NC(=O)[C@H](Cc1ccc(O)cc1)NC(=O)[C@H](CO)NC(=O)[C@H](CO)NC(=O)[C@@H](NC(=O)[C@H](CC(=O)O)NC(=O)[C@H](CO)NC(=O)[C@@H](NC(=O)[C@H](Cc1ccccc1)NC(=O)[C@@H](NC(=O)CNC(=O)[C@H](CCC(=O)O)NC(=O)[C@H](C)NC(=O)CCc1c[nH]cn1)[C@@H](C)O)[C@@H](C)O)C(C)C)C(=O)N[C@@H](C)C(=O)N[C@@H](Cc1c[nH]c2ccccc12)C(=O)N[C@@H](CC(C)C)C(=O)N[C@H](C(=O)N[C@@H](CCCNC(=N)N)C(=O)NCC(=O)N[C@@H](CCCNC(=N)N)C(=O)N[C@@H](CCCCNC(=O)COCCOCCNC(=O)COCCOCCNC(=O)CC[C@H](NC(=O)[C@H]1CC[C@H](CNC(=O)CCCCCCCCCCCCCCCCCCC(=O)O)CC1)C(=O)O)C(=O)O)C(C)C [Example 26, N-epsilon37-[2-(2-{2-[2-(2-{2-[(S)-4-Carboxy-4-({trans-4-[(19-carboxy-nonadecanoylamino)methyl]cyclohexanecarbonyl}amino)butyrylamino]ethoxy}ethoxy)acetylamino]ethoxy}ethoxy)acetyl][DesaminoHis7,Glu22,Arg26,Arg34,Lys37]GLP-1-(7-37)] | 5.70 to 6.10 | –
3 | CC[C@H](C)[C@H](NC(=O)[C@H](Cc1ccccc1)NC(=O)[C@H](CCC(=O)O)NC(=O)[C@H](CCCNC(=N)N)NC(=O)[C@H](C)NC(=O)[C@H](C)NC(=O)[C@H](CCC(N)=O)NC(=O)CNC(=O)[C@H](CCC(=O)O)NC(=O)[C@H](CC(C)C)NC(=O)[C@H](Cc1ccc(O)cc1)NC(=O)[C@H](CO)NC(=O)[C@H](CO)NC(=O)[C@@H](NC(=O)[C@H](CC(=O)O)NC(=O)[C@H](CO)NC(=O)[C@@H](NC(=O)[C@H](Cc1ccccc1)NC(=O)[C@@H](NC(=O)CNC(=O)[C@H](CCC(=O)O)NC(=O)[C@H](C)NC(=O)CCc1c[nH]cn1)[C@@H](C)O)[C@@H](C)O)C(C)C)C(=O)N[C@@H](C)C(=O)N[C@@H](Cc1c[nH]c2ccccc12)C(=O)N[C@@H](CC(C)C)C(=O)N[C@H](C(=O)N[C@@H](CCCNC(=N)N)C(=O)NCC(=O)N[C@@H](CCCNC(=N)N)C(=O)N[C@@H](CCCCNC(=O)COCCOCCNC(=O)CC[C@H](NC(=O)CC[C@H](NC(=O)CCCCCCCCCCCNC(=O)CCCS(=O)(=O)NC(=O)CCCCCCCCCCCCCCCc1nnn[nH]1)C(=O)O)C(=O)O)C(=O)O)C(C)C [Example 65, N-epsilon37-[2-(2-{2-[(S)-4-Carboxy-4-((S)-4-carboxy-4-{12-[4-(16-(1H-tetrazol-5-yl)hexadecanoylsulfamoyl)butyrylamino]dodecanoylamino}butyrylamino)butyrylamino]ethoxy}ethoxy)acetyl][DesaminoHis7,Arg26,Arg34,Lys37]GLP-1-(7-37)] | – | 0.001 to 0.1
4 | CC[C@H](C)[C@H](NC(=O)[C@H](Cc1ccccc1)NC(=O)[C@H](CCC(=O)O)NC(=O)[C@H](CCCNC(=N)N)NC(=O)[C@H](C)NC(=O)[C@H](C)NC(=O)[C@H](CCC(N)=O)NC(=O)CNC(=O)[C@H](CCC(=O)O)NC(=O)[C@H](CC(C)C)NC(=O)[C@H](Cc1ccc(O)cc1)NC(=O)[C@H](CO)NC(=O)[C@H](CO)NC(=O)[C@@H](NC(=O)[C@H](CC(=O)O)NC(=O)[C@H](CO)NC(=O)[C@@H](NC(=O)[C@H](Cc1ccccc1)NC(=O)[C@@H](NC(=O)CNC(=O)[C@H](CCC(=O)O)NC(=O)[C@H](C)NC(=O)CCc1c[nH]cn1)[C@@H](C)O)[C@@H](C)O)C(C)C)C(=O)N[C@@H](C)C(=O)N[C@@H](Cc1c[nH]c2ccccc12)C(=O)N[C@@H](CC(C)C)C(=O)N[C@H](C(=O)N[C@@H](CCCNC(=N)N)C(=O)NCC(=O)N[C@@H](CCCNC(=N)N)C(=O)N[C@@H](CCCCNC(=O)COCCOCCNC(=O)COCCOCCNC(=O)CC[C@H](NC(=O)[C@H]1CC[C@H](CNC(=O)CCCCCCCCCCCCCCCCCCC(=O)O)CC1)C(=O)O)C(=O)O)C(C)C [Example 31, N-epsilon37-[2-(2-{2-[2-(2-{2-[(S)-4-Carboxy-4-({trans-4-[(19-carboxy-nonadecanoylamino)methyl]cyclohexanecarbonyl}amino)butyrylamino]ethoxy}ethoxy)acetylamino]ethoxy}ethoxy)acetyl][DesaminoHis7,Arg26,Arg34,Lys37]GLP-1-(7-37)] | – | 0.3 to 0.8
5 | CC[C@H](C)[C@H](NC(=O)[C@H](Cc1ccccc1)NC(=O)[C@H](CCC(=O)O)NC(=O)[C@H](CCCNC(=N)N)NC(=O)[C@H](C)NC(=O)[C@H](C)NC(=O)[C@H](CCC(N)=O)NC(=O)[C@H](CCC(=O)O)NC(=O)[C@H](CCC(=O)O)NC(=O)[C@H](CC(C)C)NC(=O)[C@H](Cc1ccc(O)cc1)NC(=O)[C@H](CO)NC(=O)[C@H](CO)NC(=O)[C@@H](NC(=O)[C@H](CC(=O)O)NC(=O)[C@H](CO)NC(=O)[C@@H](NC(=O)[C@H](Cc1ccccc1)NC(=O)[C@@H](NC(=O)CNC(=O)[C@H](CCC(=O)O)NC(=O)[C@H](C)NC(=O)CCc1c[nH]cn1)[C@@H](C)O)[C@@H](C)O)C(C)C)C(=O)N[C@@H](C)C(=O)N[C@@H](Cc1c[nH]c2ccccc12)C(=O)N[C@@H](CC(C)C)C(=O)N[C@H](C(=O)N[C@@H](CCCNC(=N)N)C(=O)NCC(=O)N[C@@H](CCCNC(=N)N)C(=O)NCC(=O)N[C@@H](CCCCNC(=O)COCCOCCNC(=O)CC[C@H](NC(=O)CC[C@H](NC(=O)CCCCCCCCCCCNC(=O)CCCS(=O)(=O)NC(=O)CCCCCCCCCCCCCCCc1nnn[nH]1)C(=O)O)C(=O)O)C(N)=O)C(C)C [Example 67, [ImPr^7,Arg^26,34,Glu^22]GLP-1-(7-37)Lys[2-(2-[2-((S)-4-((S)-4-(12-[4-(16-1H-tetrazol-5-ylhexadecanoylsulfamoyl)butyrylamino]dodecanoylamino)-4-carboxybutyrylamino)-4-carboxybutyrylamino)ethoxy]ethoxy)acetyl]-amid] (Desaminohistidyl-AEGTFTSDVSSYLEEQAAREFIAWLVRGRGK([AEEA-γGlu-γGlu-12Ado-X1])-NH2) | 7.00 to 9.00 | –
